Source: PubChem BioAssay (NCI)
Values joined by “and” are separate entries in the source; they are usually repeats but may differ in a detail not shown here. Equal entries are not always repeated.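 1) Cells in 96-well plates. 2) Compound, 48 h, 5 concentrations. 3) Linear interpolation between surrounding doses. 4) Unreached endpoint = highest concentration. The concentration for 50% growth inhibition is given as GI50. The concentration for full growth arrest is given as TGI.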

Columns and labels:
Test in all cases: NCI tumour cell line growth inhibition, 48 h
EKVX NSCLC = test system: EKVX NSCLC
HCT-116 colon = test system: HCT-116 colon
HT29 colon = test system: HT29 colon
M14 melanoma = test system: M14 melanoma
NCI-H226 lung = test system: NCI-H226 lung
NCI-H460 lung = test system: NCI-H460 lung
SF-539 CNS = test system: SF-539 CNS
SK-MEL-2 melanoma = test system: SK-MEL-2 melanoma
SK-OV-3 ovarian = test system: SK-OV-3 ovarian
SR leukemia = test system: SR leukemia

SMILES | GI50 (EKVX NSCLC) | TGI (EKVX NSCLC) | GI50 (HCT-116 colon) | TGI (HCT-116 colon) | GI50 (HT29 colon) | TGI (HT29 colon) | GI50 (M14 melanoma) | TGI (M14 melanoma) | GI50 (NCI-H226 lung) | TGI (NCI-H226 lung) | GI50 (NCI-H460 lung) | TGI (NCI-H460 lung) | GI50 (SF-539 CNS) | TGI (SF-539 CNS) | GI50 (SK-MEL-2 melanoma) | TGI (SK-MEL-2 melanoma) | GI50 (SK-OV-3 ovarian) | TGI (SK-OV-3 ovarian) | GI50 (SR leukemia) | TGI (SR leukemia)
CNC(=O)c1sc(-n2cnc3cc(OC)c(OC)cc32)cc1OCc1ccccc1C(F)(F)F | > 25 µM | > 25 µM | > 25 µM | > 25 µM | > 25 µM | > 25 µM | > 25 µM | > 25 µM | 22.9 µM | > 25 µM | > 25 µM | > 25 µM | > 25 µM | > 25 µM | > 25 µM | > 25 µM | > 25 µM | > 25 µM | 9.49 µM | > 25 µM
COc1cc2c3c(c4cc(OC)c(OC)cc4c2cc1OC)CN1CCC[C@H]1C3 | 0.0216 µM and < 0.01 µM | 0.285 µM and 0.284 µM |  | 1.75 µM and 1.04 µM | 0.034 µM and < 0.01 µM | 1.14 µM | 0.0502 µM and < 0.0142 µM | 2.15 µM and 1.21 µM |  | 1.06 µM | 0.03 µM and < 0.01 µM | 1.13 µM and 0.825 µM | 0.0564 µM and 0.0157 µM | 2.94 µM and 1.12 µM | 0.0297 µM and < 0.01 µM |  |  | 0.172 µM | 0.0667 µM and 0.0102 µM | 
Nc1nc(SCC#CCCl)c2[nH]cnc2n1 | 3.22 µM | 15.4 µM | 3.86 µM | 15.2 µM | 4.92 µM | 18.1 µM | 6.58 µM | 20.9 µM | 8.02 µM | 26.7 µM | 3.62 µM | 16.7 µM | 3.61 µM | 15.4 µM | 4.92 µM | 23.3 µM | 7.56 µM | 27.6 µM | 3.15 µM | 18.9 µM
Cc1cnc(C(=O)Nc2nc3ccc(S(=O)(=O)Nc4ccc(C(C)(C)C)cc4)cc3[nH]2)cn1 | 0.789 µM | 14 µM | 0.498 µM | 6.22 µM | 0.388 µM | 4.23 µM | 0.384 µM | 4.43 µM | 0.723 µM | 7.35 µM | 0.37 µM | 2.02 µM | 0.333 µM | 1.87 µM | 1.26 µM | 17.3 µM | 1.09 µM | 17.1 µM | 0.133 µM | 12.5 µM
COC(=O)c1sc(-n2cnc3cc(OC)c(OC)cc32)cc1OCc1ccccc1C(F)(F)F | > 25 µM | > 25 µM | > 21.8 µM | > 25 µM | > 25 µM | > 25 µM | > 25 µM | > 25 µM | > 25 µM | > 25 µM | 18.7 µM | > 25 µM | > 25 µM | > 25 µM | > 19 µM | > 25 µM | > 21.5 µM | > 25 µM | > 25 µM | > 25 µM
CC1CCc2c(C(=O)Nc3ncc(Cc4cccc([N+](=O)[O-])c4)s3)csc2C1 (stereo not given) | 1.11 µM | > 100 µM | 0.468 µM | > 100 µM | 0.38 µM | > 100 µM | 0.4 µM | > 100 µM | 1.96 µM | > 100 µM | 0.491 µM | > 100 µM | 0.548 µM | 1.93 µM | 0.586 µM | > 100 µM | 0.436 µM | > 100 µM | 0.176 µM | > 100 µM
